Laboratory results: ChEMBL document CHEMBL2203237, “Synthesis of C3-arylated-3-deazauridine derivatives with potent anti-HSV-1 activities” (Bioorg Med Chem Lett, 2012)
Calls of active or inactive are those of the source. The rule behind the calls is not given here.

Experiments:
[1] = test system: Human alphaherpesvirus 1; assay: Antiviral activity against Herpes simplex virus type 1 infected in Vero cells at 0.01 ID50/cells assessed as protection against virus-induced cytopathic effect after 3 days by neutral red dye method; type: functional, organism-based; details: Human alphaherpesvirus 1, Vero, 72 h
[2] = Cytotoxicity against african green monkey Vero cells after 3 days by neutral red dye method; type: cell-based; details: chlorocebus sabaeus
[3] = test system: Human alphaherpesvirus 1; assay: Antiviral activity against Herpes simplex virus type 1 infected in Vero cells at 0.001 ID50/cells assessed as protection against virus-induced cytopathic effect after 3 days by neutral red dye method; type: functional, organism-based; details: Human alphaherpesvirus 1, Vero, 72 h
[4] = test system: Human alphaherpesvirus 1; assay: Antiviral activity against Herpes simplex virus type 1 infected in Vero cells at 0.001 ID50/cells assessed as destruction of cell layer after 3 days by neutral red dye method; type: functional, organism-based
[5] = test system: Human alphaherpesvirus 1; assay: Antiviral activity against Herpes simplex virus type 1 infected in Vero cells at 0.001 ID50/cells assessed as change in cell morphology after 3 days by neutral red dye method; type: functional, organism-based
[6] = test system: Human alphaherpesvirus 1; assay: Ratio of acyclovir EC50 to compound EC50 for Herpes simplex virus type 1; type: functional
[7] = test system: Human alphaherpesvirus 1; assay: Antiviral activity against Herpes simplex virus type 1 infected in Vero cells at 0.001 ID50/cells assessed as protection against virus-induced cytopathic effect at 200 ug/ml after 3 days by neutral red dye method relative to control; type: functional

| Compound | EC50 [1] | CC50 at 72 h [2] | EC50 [3] | Activity [4] | Activity [5] | ratio [6] | Activity [7] |
| --- | --- | --- | --- | --- | --- | --- | --- |
| CC(=O)OC[C@H]1O[C@@H](n2ccc(O)c(-c3ccc(C(C)(C)C)cc3)c2=O)[C@H](OC(C)=O)[C@@H]1OC(C)=O | > 100 µM | > 200 µM | – | – | – | – | – |
| O=c1c(-c2ccc3c(c2)OCO3)c(O)ccn1[C@@H]1O[C@H](CO)[C@@H](O)[C@H]1O | – | > 400 µM | > 100 µM | Active | Active | – | – |
| CC(=O)OC[C@H]1O[C@@H](n2c(=O)cc(O)c3ccccc32)[C@H](OC(C)=O)[C@@H]1OC(C)=O | > 100 µM | > 200 µM | – | – | – | – | – |
| CCOc1ccc(-c2c(O)ccn([C@@H]3O[C@H](COC(C)=O)[C@@H](OC(C)=O)[C@H]3OC(C)=O)c2=O)cc1 | > 100 µM | > 200 µM | – | – | – | – | – |
| CC(=O)OC[C@H]1O[C@@H](n2cc(-c3ccccc3)c(O)cc2=O)[C@H](OC(C)=O)[C@@H]1OC(C)=O | > 100 µM | > 200 µM | – | – | – | – | – |
| O=c1c(-c2ccccc2)c(O)ccn1[C@@H]1O[C@H](CO)[C@@H](O)[C@H]1O | – | > 400 µM | > 100 µM | Active | Active | – | – |
| COc1cc(-c2c(O)ccn([C@@H]3O[C@H](COC(C)=O)[C@@H](OC(C)=O)[C@H]3OC(C)=O)c2=O)cc(OC)c1OC | > 100 µM | > 200 µM | – | – | – | – | – |
| O=c1c(CCc2ccccc2)c(O)ccn1[C@@H]1O[C@H](CO)[C@@H](O)[C@H]1O | – | > 400 µM | > 100 µM | Active | Active | – | – |
| Cc1ccc(-c2c(O)ccn([C@@H]3O[C@H](CO)[C@@H](O)[C@H]3O)c2=O)cc1 | – | > 400 µM | > 100 µM | Active | Active | – | – |
| CC(=O)OC[C@H]1O[C@@H](n2ccc(O)c(-c3ccc4c(c3)OCO4)c2=O)[C@H](OC(C)=O)[C@@H]1OC(C)=O | – | > 400 µM | > 100 µM | Active | Active | – | – |
| COc1ccc(-c2cn([C@@H]3O[C@H](CO)[C@@H](O)[C@H]3O)c(=O)cc2O)cc1 | > 100 µM | > 200 µM | – | – | – | – | – |
| COc1cc(-c2c(O)ccn([C@@H]3O[C@H](CO)[C@@H](O)[C@H]3O)c2=O)cc(OC)c1OC | > 100 µM | > 200 µM | – | – | – | – | – |
| CC(=O)OC[C@H]1O[C@@H](n2ccc(O)c(CCc3ccccc3)c2=O)[C@H](OC(C)=O)[C@@H]1OC(C)=O | – | > 400 µM | > 100 µM | Active | Active | – | – |
| COc1ccc(-c2c(O)ccn([C@@H]3O[C@H](COC(C)=O)[C@@H](OC(C)=O)[C@H]3OC(C)=O)c2=O)cc1OC | > 100 µM | > 200 µM | 36.6 µM | Active | Active | 2.1 | 75% |
| CC(C)(C)c1ccc(-c2c(O)ccn([C@@H]3O[C@H](CO)[C@@H](O)[C@H]3O)c2=O)cc1 | > 100 µM | > 200 µM | – | – | – | – | – |
| CCOc1ccc(-c2c(O)c(-c3ccccc3)cn([C@@H]3O[C@H](COC(C)=O)[C@@H](OC(C)=O)[C@H]3OC(C)=O)c2=O)cc1 | > 100 µM | > 200 µM | – | – | – | – | – |
| COc1ccc(-c2c(O)ccn([C@@H]3O[C@H](CO)[C@@H](O)[C@H]3O)c2=O)cc1 | > 100 µM | > 400 µM | 20 µM | Active | Active | 3.8 | 82% |
| O=c1cc(O)c2ccccc2n1[C@@H]1O[C@H](CO)[C@@H](O)[C@H]1O | > 100 µM | > 200 µM | – | – | – | – | – |

| Compound | EC50 [1] | CC50 at 72 h [2] | EC50 [3] | Activity [4] | Activity [5] | ratio [6] | Activity [7] |
| --- | --- | --- | --- | --- | --- | --- | --- |
| CC(=O)OC[C@H]1O[C@@H](n2ccc(O)c(-c3ccc(C4CCCCC4)cc3)c2=O)[C@H](OC(C)=O)[C@@H]1OC(C)=O | 49 µM | > 200 µM | – | – | – | 45 | – |
| CC(=O)OC[C@H]1O[C@@H](n2ccc(O)c(-c3ccc(S(C)(=O)=O)cc3)c2=O)[C@H](OC(C)=O)[C@@H]1OC(C)=O | > 100 µM | > 200 µM | – | – | – | – | – |
| CC(=O)OC[C@H]1O[C@@H](n2ccc(O)c(-c3ccc(-c4ccccc4)cc3)c2=O)[C@H](OC(C)=O)[C@@H]1OC(C)=O | 33 µM | > 200 µM | – | – | – | 67 | – |
| Nc1nc2c(ncn2COCCO)c(=O)[nH]1 [ACYCLOVIR] | 22 µM | > 200 µM | 0.76 µM | – | – | – | – |
| O=c1cc(O)c(-c2ccccc2)cn1[C@@H]1O[C@H](CO)[C@@H](O)[C@H]1O | > 100 µM | > 200 µM | – | – | – | – | – |
| COc1c(C)cc(-c2c(O)ccn([C@@H]3O[C@H](CO)[C@@H](O)[C@H]3O)c2=O)cc1C | > 100 µM | > 200 µM | – | – | – | – | – |
| COc1ccc(-c2c(O)ccn([C@@H]3O[C@H](CO)[C@@H](O)[C@H]3O)c2=O)cc1OC | – | > 400 µM | > 100 µM | Active | Active | – | – |
| COc1c(C)cc(-c2c(O)ccn([C@@H]3O[C@H](COC(C)=O)[C@@H](OC(C)=O)[C@H]3OC(C)=O)c2=O)cc1C | > 100 µM | > 200 µM | – | – | – | – | – |
| CC(=O)OC[C@H]1O[C@@H](n2ccc(O)c(-c3ccc(C)cc3)c2=O)[C@H](OC(C)=O)[C@@H]1OC(C)=O | – | > 400 µM | > 100 µM | Active | Active | – | – |
| CCOc1ccc(-c2c(O)c(-c3ccccc3)cn([C@@H]3O[C@H](CO)[C@@H](O)[C@H]3O)c2=O)cc1 | > 100 µM | > 200 µM | – | – | – | – | – |
| COc1ccc(-c2c(O)ccn([C@@H]3O[C@H](COC(C)=O)[C@@H](OC(C)=O)[C@H]3OC(C)=O)c2=O)cc1 | > 100 µM | > 200 µM | 10.5 µM | Active | Active | 7.2 | 85% |
| COc1ccc(-c2cn([C@@H]3O[C@H](COC(C)=O)[C@@H](OC(C)=O)[C@H]3OC(C)=O)c(=O)cc2O)cc1 | > 100 µM | > 200 µM | – | – | – | – | – |
| CC(=O)OC[C@H]1O[C@@H](n2ccc(O)c(-c3ccccc3)c2=O)[C@H](OC(C)=O)[C@@H]1OC(C)=O | – | > 400 µM | > 100 µM | Active | Active | – | – |
| CCOc1ccc(-c2c(O)ccn([C@@H]3O[C@H](CO)[C@@H](O)[C@H]3O)c2=O)cc1 | > 100 µM | > 200 µM | – | – | – | – | – |
| O=c1c(-c2ccc(C3CCCCC3)cc2)c(O)ccn1[C@@H]1O[C@H](CO)[C@@H](O)[C@H]1O | > 100 µM | > 200 µM | – | – | – | – | – |
| CC(=O)OC[C@H]1O[C@@H](n2ccc(O)c(-c3ccc(OC(F)(F)F)cc3)c2=O)[C@H](OC(C)=O)[C@@H]1OC(C)=O | > 100 µM | > 200 µM | – | – | – | – | – |
| O=c1c(-c2ccc(-c3ccccc3)cc2)c(O)ccn1[C@@H]1O[C@H](CO)[C@@H](O)[C@H]1O | > 100 µM | > 200 µM | – | – | – | – | – |
